Columns and labels:
[1] = system: Aspergillus species; test: Antifungal activity with Mycograb antibody, summary over the Aspergillus species examined; assay type: cell-based; conditions: summary of Tables 1-4; agent combined with Mycograb antibody
Experimental: (§1) An inoculum suspension was prepared in buffered RPMI with glutamine medium by probing colonies from a 7 day old Sabouraud plate. The suspension was adjusted to 0.09-0.11 (80% to 82% transmittance) for Aspergillus species, 0.15-0.17 (68% to 70% transmittance). The inoculum was diluted a further 1:2 when added to the antifungal agents in the assay (final inoculum (0.4×10^4 to 0.5×10^4). For AMB and Mycograb®, either alone or in combination, the endpoint was determined as the concentration to produce no growth (MIC-0). Microtitre plates were incubated at 37° C. without agitation for 48 hours for Aspergillus species. For caspofungin, voriconazole and itraconazole, either alone or in combination with Mycograb® antibody, the MIC endpoint was determined as the concentration resulting in a prominent decrease in turbidity (≧50% growth inhibition, MIC-2) compared to the growth control (Keele et al. 2001; Espinel-Ingroff 2003). The final inhibitory concentration (FIC) was calculated for each drug by dividing the MIC in the presence of the second drug by the MIC in its absence. For each combination, two fractions were produced which were summated to produce the fractional final inhibitory concentration. Synergy was defined by value of ≦0.5, indifference was defined by a value of >0.5 to <4.0, and antagonism was defined by a value of ≧4.0 (Matthews et al., 2003).

[2] = system: A. flavus; test: Broth microdilution (NCCLS M38-A) checkerboard assay, A. flavus; assay type: cell-based
Experimental: (§2) Stock solutions of amphotericin B (AMB, Sigma), caspofungin (Caspo), voriconazole (VOR) and itraconazole (ITZ) were prepared according to the National Committee for Clinical Laboratory Standards (M38-A) in RPMI 1640 with glutamine broth medium, buffered to pH 7.0 with […] morpholinopropanesulphonic acid (MOPS). AMB stock solutions were prepared as a 100× series in 100% dimethyl sulfoxide (DMSO) and diluted in medium to a concentration range of 0.03125 to 16 μg/ml. Caspofungin, voriconazole and itraconazole were tested at a concentration range of 0.03125 to 1024 μg/ml, and Mycograb® (NeuTec Pharma plc) at a concentration range of 0.25 to 1024 μg/ml.
(§3) Clinical isolates of Aspergillus fumigatus (2), A. flavus (1), A. terreus (1) and A. niger (1) were obtained from the Department on Microbiology, Manchester Royal Infirmary, Manchester, UK.
as §1

[3] = system: A. fumigatus CI2; test: Broth microdilution (NCCLS M38-A) checkerboard assay, A. fumigatus CI2; assay type: cell-based, Aspergillus fumigatus
Experimental: as §2, §3, §1

[4] = system: A. terreus; test: Broth microdilution (NCCLS M38-A) checkerboard assay, A. terreus; assay type: cell-based
Experimental: as §2, §3, §1

[5] = system: Candida strains; conditions: wide variety of fungal strains (e.g. Candida species); WO 01/76627; cited from earlier work
[6] = system: A. fumigatus; test: Broth microdilution (NCCLS M38-A) checkerboard assay, A. fumigatus; assay type: cell-based, Aspergillus fumigatus
Experimental: as §2, §3, §1

[7] = system: A. niger; test: Broth microdilution (NCCLS M38-A) checkerboard assay, A. niger; assay type: cell-based
Experimental: as §2, §3, §1

[8] = agent alone, Table 1, no growth endpoint
[9] = amphotericin B and Mycograb combination
[10] = amphotericin B and Mycograb in combination

Which “Antifungal activity / surprising effect when used in combination with Mycograb antibody” value [1] does the source give for `C[C@@H]1[C@H](O)[C@@H](C)/C=C/C=C/C=C/C=C/C=C/C=C/C=C/[C@H](O[C@@H]2O[C@H](C)[C@@H](O)[C@H](N)[C@@H]2O)C[C@@H]2O[C@](O)(C[C@@H](O)C[C@@H](O)[C@H](O)CC[C@@H](O)C[C@@H](O)CC(=O)O[C@H]1C)C[C@H](O)[C@H]2C(=O)O` [AMB, amphotericin B] here?
The value was “not observed”.

And the “MIC-0 of each agent, Alone” value [2, 8]?
The value was 4 µg/mL.

And the FICI [2, 9]?
The FICI was 2.

What about the Outcome [2, 9] of the same molecule?
Its Outcome is “Indifferent (indifference was defined by a value of >0.5 to <4.0)”.

What about the “MIC-0 of each agent, Combination” value [2, 10] of the same molecule?
The value was 4 µg/mL.

What about the “MIC-0 of each agent, Alone” value [3, 8] of the same molecule?
Its value is 2 µg/mL.

And the FICI [3, 9]?
Its FICI is 0.531.

And the Outcome [3, 9]?
Its Outcome is “Indifferent (indifference was defined by a value of >0.5 to <4.0)”.

And the “MIC-0 of each agent, Combination” value [3, 10]?
Its value is 1 µg/mL.

What about the “MIC-0 of each agent, Alone” value [4, 8] of the same molecule?
The value was 4 µg/mL.

What about the FICI [4, 9] of the same molecule?
Its FICI is 2.

And the Outcome [4, 9]?
The Outcome was “Indifferent (indifference was defined by a value of >0.5 to <4.0)”.

What about the “MIC-0 of each agent, Combination” value [4, 10] of the same molecule?
Its value is 4 µg/mL.

What about the FIC ([4]; amphotericin B and Mycograb, MIC in combination divided by MIC alone) of the same molecule?
The FIC was 1 µg/mL.

What about the “Efficacy of antifungal agent in the presence of the antibody” value [5] of the same molecule?
Its value is “significantly enhanced”.

What about the “MIC-0 of each agent, Alone” value [6, 8] of the same molecule?
Its value is 2 µg/mL.

What about the FICI [6, 9] of the same molecule?
Its FICI is 0.5.

And the Outcome [6, 9]?
Its Outcome is “Indifferent (indifference was defined by a value of >0.5 to <4.0)”.

And the “MIC-0 of each agent, Combination” value [6, 10]?
Its value is 1 µg/mL.

What about the “MIC-0 of each agent, Alone” value [7, 8] of the same molecule?
The value was 2 µg/mL.

What about the FICI [7, 9] of the same molecule?
Its FICI is 0.5.

What about the Outcome [7, 9] of the same molecule?
The Outcome was “Indifferent (indifference was defined by a value of >0.5 to <4.0)”.

What about the “MIC-0 of each agent, Combination” value [7, 10] of the same molecule?
The value was 1 µg/mL.
